Reference: patent US6596758B1, “Benzopyrans and benzoxepines, pharmaceutical compositions comprising them and preparation process” (Merck Patent GmbH, priority 1998, dated 2003)

What was measured:
PPARγ = PPARγ activation, luciferase reporter (J3TkLuc) in CV1 cells; format: cell-based, green monkey; conditions: 36 hours incubation, relative to the control value
Description: (§1) The hypolipidaemic and hypoglycaemic effect of the compounds of the invention results from their ability to activate the PPARα and PPARγ isoforms.
(§2) Analysis of the activation of PPARα and PPARγ is based on the transfection of a DNA allowing the expression of a reporter gene (the gene of luciferase) under the control of the PPARs, either endogenous in the case of PPARγ of exogenous in the case of PPARα. The reporter plasmid J3TkLuc comprises three copies of the response element for PPARs of the human apo A-II gene (Staels, B et al. (1995), J. Clin. Invest., 95, 705-712) which are cloned upstream of the promoter of the thymidine kinase gene of the herpes simplex virus in the plasmid pGL3. This reporter gene was obtained by subcloning, in the plasmid pGL3, the plasmid J3TkCAT described above (Fajas, L et al. (1997), J. Biol. Chem., 272, 18779-18789). […] These cells were inoculated at the rate of 20,000 cells per well (96-well plates) and transfected with 150 ng of reporter DNA complexed with a mixture of lipids. In the case of the SK-Hep1 cells, an expression vector for PPARα, described by Sher, T. et al. (1993), Biochemistry, 32, 5598-5604, is cotransfected. […] At the end of incubation, the cells are lysed and the luciferase activity is measured. […]

PPARα = molecular target: T1, PPARα (Homo sapiens, UniProt Q07869); experiment: PPARα activation, luciferase reporter (J3TkLuc) in SK-Hep1 cells cotransfected with PPARα expression vector; format: cell-based; conditions: 36 hours incubation, relative to the control value
T1 construct: expressed in transfected cells
T1 sequence (Q07869 1-468): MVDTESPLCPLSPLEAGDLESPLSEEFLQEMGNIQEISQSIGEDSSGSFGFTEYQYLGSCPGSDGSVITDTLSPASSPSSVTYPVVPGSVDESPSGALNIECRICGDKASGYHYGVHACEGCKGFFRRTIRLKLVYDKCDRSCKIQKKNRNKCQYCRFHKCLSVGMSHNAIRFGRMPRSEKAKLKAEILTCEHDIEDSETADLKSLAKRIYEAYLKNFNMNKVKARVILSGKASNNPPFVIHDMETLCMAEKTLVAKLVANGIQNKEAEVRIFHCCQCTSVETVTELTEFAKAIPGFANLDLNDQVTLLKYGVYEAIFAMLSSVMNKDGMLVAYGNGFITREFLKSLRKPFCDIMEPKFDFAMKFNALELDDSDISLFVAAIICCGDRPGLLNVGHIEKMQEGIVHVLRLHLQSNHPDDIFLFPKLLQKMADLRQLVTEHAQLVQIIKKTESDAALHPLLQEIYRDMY
Description: as §1, §2

[1] = tested on: pGL3 reporter vector devoid of a PPAR response element; experiment: pGL3 reporter vector devoid of a PPAR response element, CV1 cells; format: cell-based, green monkey
Description: (§3) Analysis of the activation of PPARα and PPARγ is based on the transfection of a DNA allowing the expression of a reporter gene (the gene of luciferase) under the control of the PPARs, either endogenous in the case of PPARγ of exogenous in the case of PPARα. The reporter plasmid J3TkLuc comprises three copies of the response element for PPARs of the human apo A-II gene (Staels, B et al. (1995), J. Clin. Invest., 95, 705-712) which are cloned upstream of the promoter of the thymidine kinase gene of the herpes simplex virus in the plasmid pGL3. This reporter gene was obtained by subcloning, in the plasmid pGL3, the plasmid J3TkCAT described above (Fajas, L et al. (1997), J. Biol. Chem., 272, 18779-18789). […] These cells were inoculated at the rate of 20,000 cells per well (96-well plates) and transfected with 150 ng of reporter DNA complexed with a mixture of lipids. In the case of the SK-Hep1 cells, an expression vector for PPARα, described by Sher, T. et al. (1993), Biochemistry, 32, 5598-5604, is cotransfected. After 5, hours, the cells are washed twice and incubated for 36 hours in the presence of the test compound in a fresh culture medium comprising 10% foetal calf serum. At the end of incubation, the cells are lysed and the luciferase activity is measured. This activity is expressed relative to the control value. […]

[2] = tested on: pGL3 reporter vector devoid of a PPAR response element; experiment: pGL3 reporter vector devoid of a PPAR response element, SK-Hep1 cells; format: cell-based, human
Description: as §3

db/db mice = experiment: Antidiabetic and hypolipidaemic activity by the oral route in db/db mice; format: in vivo; conditions: 100 mg/kg/day per os
Protocol: The antidiabetic and hypolipidaemic activity of the compounds of formula I [sic] was determined by the oral route in db/db mice.
Two-month-old db/db mice are treated per os for 15 days with the compound of Example 16 (100 mg/kg/day). Each study group comprises seven animals. After treating for three days (D3) and fifteen days (D15), retro-orbital samples are taken after light anaesthesia and fasting for 4 hours.
The following measurements were taken:
quantitative determination of glycaemia (glucose oxidase) at D3 and D15 and of the lipid parameters with regard to the sera at D15 (COBAS): triglycerides, total cholesterol (CHOL), HDL cholesterol (HDL-C) and free fatty acids (FFA) (BioMérieux and Wako Chemicals quantitative determination kit).
The measurements which appear in this table are mean values±standard error.

[3] = day 15, serum, mean ± standard error

SMILES	melting point [°C]	also measured
COc1ccc2c(c1)C(/C=C/C(C)=C/C(=O)O)=C(C)C(C)(C)CO2 [Example 54B, (2E, 4E)-5-(7-Methoxy-3,3,4-trimethyl-2,3-dihydrobenzo[b]-oxepin-5-yl)-3-methylpenta-2,4-dienoic acid]	129 to 130	–
CCCCCCCCCNC1Oc2ccccc2C=C1/C=C/C(C)=C/C(=O)O (stereo not drawn)	104 to 106	–
CC(/C=C/C1=CC(C)(C)COc2ccc(C3CCCCC3)cc21)=C\C(=O)O [Example 50B, (2E, 4E)-5-(7-Cyclohexyl-3,3-dimethyl-2,3-dihydrobenzo[b]-oxepin-5-yl)-3-methylpenta-2,4-dienoic acid]	195 to 196	–
CCCC(/C=C/C1=CC(C)(C)COc2ccc(OC)cc21)=C\C(=O)O [Example 49B, (2E, 4E)-5-(7-Methoxy-3,3-dimethyl-2,3-dihydrobenzo[b]-oxepin-5-yl)-3-propylpenta-2,4-dienoic acid]	174 to 176	–
COc1ccc2c(c1)C(/C=C/C(C)=C/C(=O)O)=CC(C)(C)CS2 [Example 47B, (2E, 4E)-5-(7-Methoxy-3,3-dimethyl-2,3-dihydrobenzo[b]-thiepin-5-yl)-3-methylpenta-2,4-dienoic acid]	159 to 161	–
COc1ccc2c(c1)OC(C)(C)C=C2/C=C/C(C)=C/C(=O)O [Example 48B, (2E, 4E)-5-(7-Methoxy-2,2-dimethyl-2H-chromen-4-yl)-3-methylpenta-2,4-dienoic acid]	162 to 163	–
CC(/C=C/C1=CC(C)(C)COc2ccc(-c3ccc(C(F)(F)F)cc3)cc21)=C\C(=O)O [Example 45B, (2E, 4E)-5-[3,3-Dimethyl-7-(4-(trifluoromethyl)phenyl)-2,3-dihydrobenzo[b]-oxepin-5-yl]-3-methylpenta-2,4-dienoic acid]	194 to 196	–
CC(=C/C(=O)O)/C=C/C1=Cc2ccccc2OC1(C)C [Example 5b]	176	–
CC(/C=C/C1=Cc2ccccc2OC1)=C\C(=O)O [Example 3b]	226 to 228	–
CCC(/C=C/C1=CC(C)(C)COc2ccc(OC)cc21)=C\C(=O)O [Example 43B, (2E, 4E)-3-Ethyl-5-(7-methoxy-3,3-dimethyl-2,3-dihydrobenzo[b]-oxepin-5-yl)penta-2,4-dienoic acid]	166 to 168	–
CC1=C(/C=C/C(C)=C/C(=O)O)COc2ccccc21 [Example 11b]	216 to 218	–
CCOC(=O)/C=C(C)/C=C/C1=Cc2ccccc2OC1 [Example 3a]	110 to 112	–
CC(/C=C/C1=CC(C)(C)COc2cc(-c3ccc(F)cc3)ccc21)=C\C(=O)O [Example 38B, (2E, 4E)-5-[8-(4-Fluorophenyl)-3,3-dimethyl-2,3-dihydrobenzo[b]-oxepin-5-yl]-3-methylpenta-2,4-dienoic acid]	207 to 209	–
CC(/C=C/C1=Cc2ccccc2OC1(C)C)=C\C(=O)O [Example 4b]	164 to 166	–
COc1cccc2c1C(/C=C/C(C)=C/C(=O)O)=CC(C)(C)O2 [Example 46B, (2E, 4E)-5-(5-Methoxy-2,2-dimethyl-2H-chromen-4-yl)-3-methylpenta-2,4-dienoic acid]	160 to 162	–
CC(/C=C/C1=CC(C)(C)COc2ccc(O)cc21)=C\C(=O)O [Example 44B]	206	–
COc1ccc2c(c1)C(/C=C/C(C)=C/C(=O)O)=CC(C)(C)CO2 [Example 16b, (2E, 4E)-5-(3,3-Dimethyl-7-methoxy-2,3-dihydrobenzoxepin-5-yl)-3-methylpenta-2,4-dienoic acid]	–	increase of the luciferase signal (PPARγ): 300%; increase of the luciferase signal (PPARα): 250%; luciferase activity with pGL3 reporter vector devoid of a PPAR response element [1]: inactive; luciferase activity with pGL3 reporter vector devoid of a PPAR response element [2]: inactive; Glycaemia D3, % variation with respect to the control (db/db mice; day 3): −28%; Glycaemia D3 (db/db mice; day 3, fasting 4 hours, mean ± standard error): 15.4 ± 3.8 mM; Glycaemia D15, % variation with respect to the control (db/db mice; day 15): −40%; Glycaemia D15 (db/db mice; day 15, fasting 4 hours, mean ± standard error): 16.7 ± 4.4 mM; CHOL D15, % variation with respect to the control (db/db mice; day 15, serum): +19%; FFA, % variation with respect to the control (db/db mice; day 15, serum): −20%; HDL-C D15, % variation with respect to the control (db/db mice; day 15, serum): +18%; Triglycerides D15, % variation with respect to the control (db/db mice; day 15, serum): −68%; CHOL D15 (total cholesterol) (db/db mice; [3]): 4.44 ± 0.39 mM; FFA (free fatty acids) (db/db mice; [3]): 0.82 ± 0.23 (ns) mM; HDL-C D15 (HDL cholesterol) (db/db mice; [3]): 3.50 ± 0.37 mM; Triglycerides D15 (db/db mice; [3]): 0.69 ± 0.09 mM
CCOC(=O)/C=C(C)/C=C/C1=CC(C)(C)COc2cc(-c3ccc(F)cc3)ccc21 [Example 38A, (2E, 4E)-5-[8-(4-Fluorophenyl)-3,3-dimethyl-2,3-dihydrobenzo[b]-oxepin-5-yl]-3-methylpenta-2,4-dienoic acid ethyl ester]	113 to 115	–
CC(/C=C/C1=C(c2ccccc2)c2ccccc2OC1)=C\C(=O)O [Example 7b]	258 to 260	–
CC(=C/C(=O)O)/C=C/C1=Cc2ccccc2OC1 [Example 12b]	224 to 226	–
CC(/C=C/C1=CC(C)(C)COc2ccc(C(C)C)cc21)=C\C(=O)O [Example 40B, (2E, 4E)-5-(7-Isopropyl-3,3-dimethyl-2,3-dihydrobenzo[b]-oxepin-5-yl)-3-methylpenta-2,4-dienoic acid]	145	–
CC(/C=C/C1=Cc2ccccc2OC1c1ccccc1)=C\C(=O)O (stereo not drawn) [Example 14b]	200 to 202	–
CCCCCC(/C=C/C1=CC(C)(C)COc2ccc(OC)cc21)=C\C(=O)O [Example 52B, (2E, 4E)-5-(7-Methoxy-3,3-dimethyl-2,3-dihydrobenzo[b]-oxepin-5-yl)-3-pentylpenta-2,4-dienoic acid]	147 to 149	–
COc1ccc2c(c1)OCC(C)(C)C=C2/C=C/C(C)=C/C(=O)O [Example 39B, (2E, 4E)-5-(8-Methoxy-3,3-dimethyl-2,3-dihydrobenzo[b]-oxepin-5-yl)-3-methylpenta-2,4-dienoic acid]	178 to 180	–
COc1ccc2c(c1)C(/C=C/C(C)=C/C(=O)O)=CC1(CCCCC1)CO2 [Example 34B, (2E, 4E)-5-(Spiro[(7-methoxy-2,3-dihydrobenzo[b]-oxepine)-3,1′-cyclohexane]-5-yl)-3-methyl-penta-2,4-dienoic acid]	173 to 174	–
CCCCCC1C=C(/C=C/C(C)=C/C(=O)O)c2cc(OC)ccc2OC1 (stereo not drawn) [Example 41, (2E, 4E)-5-(7-Methoxy-3-pentyl-2,3-dihydrobenzo[b]-oxepin-5-yl)-3-methylpenta-2,4-dienoic acid]	154 to 156	–
CC(/C=C/C1=CC(C)(C)COc2cc(C)c(C)cc21)=C\C(=O)O [Example 37B, 3-Methyl-5-(3,3,7,8-tetramethyl-2,3-dihydrobenzo[b]-oxepin-5-yl)penta-2,4-dienoic acid]	171 to 173	–
